According to patent publication US20240424036A1, “COMPOSITIONS AND METHODS FOR PREVENTING OR TREATING INCONTINENCE, OVERACTIVE BLADDER, OR MENSTRUAL CRAMPING” (priority 2018, published 2024):
Entries after “also recorded” stand apart in the source; their conditions may differ.

Assays:
E. coli [1] = assay: ATP release by E. coli at subtherapeutic ciprofloxacin concentrations; assay type: cell-based, Escherichia coli; conditions: concentrations below the MIC of 0.25, 0.125, 0.0625 ug/mL, FIG. 9B
Experimental: Further testing was completed on E. coli and its release of ATP. Testing was conducted to determine the minimum inhibitory concentration (MIC) and subtherapeutic concentrations of exposure to the antibiotic ciprofloxacin (Cip).
The release of ATP from bacterial supernatants was measured using an ATP colorimetric/fluorometric assay kit (Biovision Inc, CA). Samples and reagents were prepared according to the protocol provided. The OD numbers were taken by the BIOTEK EON microplate reader. A luminescent assay kit BACTITER-GLO™ Microbial Cell Viability Assay, G8230) was used to quantify the amount of extracellular ATP released by the bacteria into the supernatant and released by the cells into the cell media. The SYNERGY™ H4 Hybrid Multi-Mode Microplate Reader was used to quantify the amount of extracellular ATP.

5637 cells = assay: Fluorescent microscopy of calcium influx of 5637 cells (FLUO-4); assay type: cell-based, human
Experimental: Supernatants were collected from cultures grown overnight (24 hours) at 37° C. after reaching stationary phase. Cultures were pelleted by centrifugation at 5000 rpm (Eppendorf Centrifuge 5804 R) for 15 minutes. The supernatant was pH adjusted to 7.0 with 0.1 Molar HCL or NaOH, filter sterilized with 0.22 um sterile syringe filter, and aliquoted and stored at −20 C° until use. In the case of E. coli and E. faecalis, overnight cultures were diluted 1:100 with fresh artificial urine, returned to incubation at 37° C. and sampled at T=1, 2, 3, 4, 5 and 24 hours for testing. […]
The influx of calcium was measured using the FLUO-4 DIRECT™ Calcium Assay kit (Invitrogen™, CA). […] Cells were counted by using the INVITROGEN COUNTESS AUTOMATED CELL COUNTER (Thermo Fisher Scientific, MA.) per the manufacturers' instructions. […] The effect of treatments was assessed using a NIKON EPIFLUORESCENCE TS2R scope at 10× magnification at 494 nm for excitation and 516 nm for emission for 60 seconds. The image intensity was calculated using ImageJ and is indicative of Ca^2+ influx into the urothelial cell's cytoplasmic space from either the extracellular environment or intracellular Ca^2+ stores (referred to as Ca^2+ influx).

[2] = tested on: primary myofibroblast cells; assay: Myofibroblast populated collagen gel contraction assay; assay type: cell-based
Experimental: Bacterial supernatants from E. coli, L. crispatus, and L. gasseri strain KE-1 (ATCC Designation No. PTA-125162) were added to a myofibroblast populated collagen matrix, both from pure culture and mixtures with DMEM with 2% FBS. In addition, GABA, ATP and LPS were included as controls. The collagen contraction assay using primary myofibroblast cells seeded on top of a collagen matrix was tested against the bacterial products. […] As depicted in FIG. 12C, pure ATP caused contraction of myofibroblasts in the first hour (30.37%) and continued for 24 hours (68.56%). […] Based on previous literature, it is believed that the contraction maybe caused by E. coli was due to LPS.
Bladder epithelial cells (5637-ATCC HTB-9) were maintained in RPMI 1640 (Roswell-Park Memorial Institute media—Thermo Fisher Scientific, MA) supplemented with 10% fetal bovine serum (FBS) (Thermo Fisher Scientific, Ma.) and 2 mM L-glutamine (Thermo Fisher Scientific, MA.) at 37° C. and 5% CO2. The media was changed every 48 hours or more regularly if the cells were confluent (90%-100%), after washing by 1×PBS and trypsinization by 0.25% Trypsin-EDTA (1×) (Gibco), with the ratio of 1 to 10. Primary myofibroblast cells were extracted from the palmar fascia during surgery from normal tissue. Primary cultures were maintained in DMEM with 10% fetal bovine serum (FBS; Life Technologies, Carlsbad, CA, USA), 1% L-glutamine (Life Technologies) and 1% antibiotic-antimycotic solution (Life Technologies) at 37° C. in 5% CO2. All primary cell lines were used up to a maximum of four passages, after which they were discarded.

L. crispatus = assay: Growth of L. crispatus in AU supplemented with ATP; assay type: cell-based, Lactobacillus crispatus; conditions: AU supplemented with different concentrations of ATP, FIG. 8E
Experimental: As depicted in FIG. 8D, the amount of ATP remaining when L. crispatus was grown in AU supplemented with 0.1 mM ATP for 24 hours was 22.89±0.98 uM, which was less than half the control (49.2±6.3 uM) (P≤0.0005). To further investigate ATP reduction, L. crispatus was cultured in AU supplemented with different concentrations of ATP (FIG. 8E), as well as in AU supplemented with 50% E. coli supernatant (FIG. 8G), and 25% G. vaginalis supernatant (FIGS. 8H and 8J), as potential natural sources of ATP. The growth of L. crispatus was increased by increasing ATP concentration (FIG. 8E), including that emanating from the E. coli and G. vaginalis supernatants (FIGS. 8H and 8J). […] In FIGS. 8A-8L, statistical significance was determined using Tukey's test, p≤0.05, and is designated with three asterisks (p less than 0.05*, 0.01**, 0.001***).
For investigation the subtherapeutic concentration of ciprofloxacin, the L. crispatus was grown in deMan, Rogosa, Sharpe media (MRS, Difco, MD). Growth curves for these bacteria were generated using a plate reader (Eon Biotek, VT) at OD600 and 37° C. to determine exponential phase.

E. coli [3] = assay: Growth of E. coli supplemented with ATP; assay type: cell-based, Escherichia coli; conditions: FIG. 8F

## O=C(O)c1cn(C2CC2)c2cc(N3CCNCC3)c(F)cc2c1=O [ciprofloxacin]
E. coli [1]
  ATP released by E. coli: up to 0.0261±0.003 uM

## NCCCC(=O)O [GABA, γ-aminobutyric acid]
5637 cells; AU containing 1 uM GABA mixed with ATP in AU, FIG. 10A
  effect on stimulation of calcium influx caused by ATP: reduce the stimulation of calcium influx
5637 cells; GABA mixed with E. coli supernatant, FIG. 10B
  effect on stimulation of calcium influx caused by E. coli supernatant: inhibit the stimulation of calcium influx
[2]; GABA alone, FIG. 12C
  contraction of myofibroblasts: did not cause contraction
[2]; GABA with E. coli, FIG. 12D
  effect on contraction caused by E. coli: inhibited contraction; also recorded: could inhibit contraction

## Nc1ncnc2c1ncn2[C@@H]1O[C@H](COP(=O)(O)OP(=O)(O)OP(=O)(O)O)[C@@H](O)[C@H]1O [ATP, adenosine triphosphate]
L. crispatus
  growth of L. crispatus: increased
[2]; after 24 hours, sample alone, FIGS. 12A-12C
  contraction of myofibroblasts: 68.56%
[2]; after five hours of exposure, FIG. 12E
  contraction of myofibroblasts: 57.5%
[2]; in the first hour, FIG. 12C
  contraction of myofibroblasts: 30.37%
E. coli [3]
  growth of E. coli: somewhat inhibitory effect
